From PMC9036794, “Improving astaxanthin production in Escherichia coli by co-utilizing CrtZ enzymes with different substrate preference” (Microbial Cell Factories, 2022)

Legend:
Assay type in all cases: cell-based
PCcrtZ [1] = biological target: T1, PCcrtZ (Paracoccus sp. PC1, UniProt Q44262); test: astaxanthin formed in canthaxanthin-producing E. coli, HPLC; details: engineered E. coli Can004 background (Ast016, Ast017), shake flask, 30 °C; conversion to astaxanthin; whole-cell titre only
T1 construct: gene crtZ; synthesized gene, integrated into E. coli chromosome (manA site) under P-trc; whole-cell read-out
T1 sequence (Q44262 1-162): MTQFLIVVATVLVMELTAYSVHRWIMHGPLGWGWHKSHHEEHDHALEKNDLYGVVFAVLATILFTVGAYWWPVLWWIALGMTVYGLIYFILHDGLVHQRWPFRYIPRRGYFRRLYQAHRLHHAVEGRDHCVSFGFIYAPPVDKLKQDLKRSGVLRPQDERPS

PAcrtZ [2] = biological target: T2, PAcrtZ (Pantoea agglomerans, UniProt E9LFG1); test: as above; details: engineered E. coli Can004 background (Ast014, Ast015), shake flask, 30 °C; conversion to astaxanthin; whole-cell titre only
T2 construct: gene crtZ; gene integrated into E. coli chromosome (manA site) under P-trc; whole-cell read-out
T2 sequence (E9LFG1 entry or part of it): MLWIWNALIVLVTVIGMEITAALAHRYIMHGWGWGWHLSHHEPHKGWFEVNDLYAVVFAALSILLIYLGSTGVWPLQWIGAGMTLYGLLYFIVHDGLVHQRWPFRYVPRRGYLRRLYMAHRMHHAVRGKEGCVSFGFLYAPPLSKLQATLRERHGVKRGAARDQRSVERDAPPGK

crtW* = biological target: T3, crtW* (Brevundimonas sp. NBRC 101024, UniProt Q4W8B8); test: canthaxanthin formed in beta-carotene-producing E. coli, HPLC; details: engineered E. coli (Can003, Can004), shake flask, 30 °C; conversion to canthaxanthin; whole-cell titre only
T3 construct: integrated into E. coli chromosome (mgsA, lacZ sites) under P-trc; whole-cell read-out
T3 sequence (Q4W8B8 1-244): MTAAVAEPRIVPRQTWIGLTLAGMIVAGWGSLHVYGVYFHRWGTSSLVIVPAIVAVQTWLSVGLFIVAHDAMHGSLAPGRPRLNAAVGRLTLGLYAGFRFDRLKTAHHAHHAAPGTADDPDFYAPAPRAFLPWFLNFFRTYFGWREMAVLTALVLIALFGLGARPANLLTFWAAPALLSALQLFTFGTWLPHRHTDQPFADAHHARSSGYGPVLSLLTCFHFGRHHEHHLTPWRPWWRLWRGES

PAcrtZ [3] = biological target: T2, PAcrtZ; test: zeaxanthin formed in beta-carotene-producing E. coli, HPLC; details: engineered E. coli CAR032 background (Zea003, Zea004), shake flask, 30 °C; conversion to zeaxanthin; whole-cell titre only
PCcrtZ [4] = biological target: T1, PCcrtZ; test: as above; details: engineered E. coli CAR032 background (Zea001, Zea002), shake flask, 30 °C; conversion to zeaxanthin, weak; whole-cell titre only
Source text: zeaxanthin formed in beta-carotene-producing E. coli, HPLC on PCcrtZ | PCcrtZ from Paracoccus sp.

CC1=C(/C=C/C(C)=C/C=C/C(C)=C/C=C/C=C(C)/C=C/C=C(C)/C=C/C2=C(C)C(=O)CCC2(C)C)C(C)(C)CCC1=O [canthaxanthin]
astaxanthin formed in canthaxanthin-producing E. coli, HPLC (PCcrtZ [1]): Ast016 (Can004 with one copy of PCcrtZ) produced similar amounts of astaxanthin | astaxanthin formed in canthaxanthin-producing E. coli, HPLC (PAcrtZ [2]): Ast014 (Can004 with one copy of PAcrtZ)

CC1=C(/C=C/C(C)=C/C=C/C(C)=C/C=C/C=C(C)/C=C/C=C(C)/C=C/C2=C(C)CCCC2(C)C)C(C)(C)CCC1 [β-carotene]
canthaxanthin formed in beta-carotene-producing E. coli, HPLC (crtW*): CrtW converts β-carotene into keto-carotenoids | zeaxanthin formed in beta-carotene-producing E. coli, HPLC (PAcrtZ [3]): PAcrtZ from P. agglomerans therefore exhibited a substrate preference for β-carotene | zeaxanthin formed in beta-carotene-producing E. coli, HPLC (PCcrtZ [4]): PCcrtZ from Paracoccus sp. PC1 showed weak activity in the conversion of β-carotene into zeaxanthin
